The values below come from patent US11406655B2, “Once-daily treatment of pulmonary fibrosis” (Galecto Biotech AB, priority 2015, dated 2022).

Structures are written as SMILES.

The nature of series [1]: Particle size (MMAD) of the dry powder used in the study. Format: physicochemical. Conditions: dry powder of the study in the Experimental section. Here is the method: When the compound of formula (I) is formulated as a dry powder it may be present in a suitable particle size selected from a mean mass aerodynamic diameter (MMAD) between 0.1 and 20 μm, such as a MMAD between 0.5 and 10 μm, such as between 1 and 5 μm, typically between 2 and 3 μm. In the study described in the Experimental section below the MMAD was measured to 2.5 μm.

Series [2] can be described thus: Radioisotope studies of lung deposition in mice. Format: in vivo.
The next series deals with Galectin-3 (Homo sapiens, UniProt P17931). As to conditions: 3 mg inhaled dose; from Cmax, mouse lung/circulation ratio and ex-vivo data in human derived macrophages.
Sequence of Galectin-3 (P17931 whole entry): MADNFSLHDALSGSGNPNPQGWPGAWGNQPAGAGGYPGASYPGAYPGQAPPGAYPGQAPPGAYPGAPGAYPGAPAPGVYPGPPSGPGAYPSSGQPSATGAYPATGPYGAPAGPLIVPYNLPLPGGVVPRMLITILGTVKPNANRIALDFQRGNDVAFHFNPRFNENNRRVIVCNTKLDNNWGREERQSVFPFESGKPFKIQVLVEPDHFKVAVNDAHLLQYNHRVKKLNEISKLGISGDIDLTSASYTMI
Series [3] can be described thus: First in Human single ascending dose phase I study: plasma pharmacokinetics after inhalation. Format: in vivo. As for the experimental part: (§1) This study was a randomized, double-blind, single center, placebo-controlled, single ascending dose (SAD), phase I study to assess the safety, tolerability, PK (pharmacokinetics) and PD (pharmacodynamics) of the compound of formula I in 36 healthy male volunteers (HV's). 6 dose cohorts of 6 subjects were evaluated using a 4:2 ratio (active:placebo). The compound of formula I was delivered to the lungs of HV's using the RS01 Monodose Dry Powder Inhaler (Plastiape) at the following 6 doses: 0.15 mg, 1.5 mg, 3 mg, 10 mg, 20 mg and 50 mg. The 0.15 mg, 1.5 mg and 3 mg dose was a 3% w/w lactose blend, whereas the 10 mg, 20 mg and 50 mg dose was formulated as neat material. The specific capsule filling weights were 5 mg for the 0.15 mg dose, 50 mg for the 1.5 mg dose, 5 mg for the 10 mg dose and 50 mg for the 50 mg dose. HV's were housed overnight and vital signs, EKG, physical exam, urinalysis and laboratory bloods followed for 14 days. PK blood sampling was taken prior to dosing and then at intervals up to 48 hrs post-dose. Plasma samples for drug concentration measurements were analyzed by the Bioanalytical Unit at Simbec (UK). PK variables were determined using the non-compartmental analysis option in the software WinNONLIN 6.3 from Certara based in Princeton, N.J. 08540 (www.certara.com).

A short description of series [4]: First in Human single ascending dose phase I study: safety and tolerability. The format is in vivo. Here is the method: as §1
Series [5] in a line: GLP toxicokinetic studies, murine intravenous dosing. The format is in vivo.

A word on the Tmax: it is the time at which the peak concentration occurs. `OC[C@H]1O[C@@H](S[C@@H]2O[C@H](CO)[C@H](O)[C@H](n3cc(-c4cccc(F)c4)nn3)[C@H]2O)[C@H](O)[C@@H](n2cc(-c3cccc(F)c3)nn2)[C@H]1O` [compound of formula I, bis (3-deoxy-3-(3-fluorophenyl-1H-1,2,3-triazol-1-yl)-β-D-galactopyranosyl)-sulfane]: the “mean mass aerodynamic diameter (MMAD)” value in series [1] is listed as 2.5 μm. The “concentration in the lung relative to the circulation” value in series [2] is given as “fifty times greater”. Also, the “local concentration in the lung in man in excess of that required to suppress Galectin-3 in lung target cells” value at Galectin-3 was 2 fold. Besides, the “dose dependence of drug concentrations based on Cmax and AUC” value in series [3] (inhaled single ascending doses 0.15-50 mg) was “exhibited dose proportionality”. For the same compound, the Tmax in series [3] (male, human, inhaled or intranasal, inhaled single dose, independent of dose) was 0.8 to 3 h. Moreover, the half-life in series [3] (male, human, inhaled or intranasal, inhaled single dose, read-out: t½ (converted)) is 12 h. Moreover, the tolerability entry in series [4] (healthy male volunteers, single inhaled dose, all 6 doses (0.15 mg to 50 mg), RS01 dry powder inhaler) is recorded as “extremely well tolerated”. In addition, the “adverse events (severity)” value in series [4] (healthy male volunteers, headache, cough and dose-related parageusia (neat blend only), self-limiting) is recorded as “only mild in nature”. The “changes from baseline in EKG, vital signs, bloods and urinalysis” value in series [4] (up to 2 weeks post-dose) is “no significant changes from baseline”. In addition, in series [5], the “fraction of compound found in the feces” value was roughly 90%.
